Columns and labels:
[1] = Inhibition of membrane fusion between HIV1 JR-FL Env-expressing COS7 cells and MOLT4/CCR5
[2] = Inhibition of replication of R5 HIV1 Ba-L in MOLT4/CCR5 cells

Compound | IC50 [1] [nM] | IC50 [2] [nM]
CCCCOCCOc1ccc(-c2ccc3c(c2)C=C(C(=O)Nc2ccc([S+]([O-])Cc4nncn4CCC)cc2)CCCN3CCC)cc1 [(S)-(-)-8-{4-[2-(butoxy)ethoxy]phenyl}-1-propyl-N-(4-{[(4-propyl-4H-1,2,4-triazol-3-yl)methyl]sulfinyl}phenyl)-1,2,3,4-tetrahydro-1-benzazocine-5-carboxamide] | 0.95 | 
CCCCOCCOc1ccc(-c2ccc3c(c2)C=C(C(=O)Nc2ccc([S+]([O-])Cc4nncn4CCC)cc2)CCCN3CC(C)C)cc1 (stereo not given) | 0.19 | 
CCCCOCCOc1ccc(-c2ccc3c(c2)C=C(C(=O)Nc2ccc([S+]([O-])Cc4cncn4CCC)cc2)CCCN3CCC)cc1 [(S)-(-)-8-{4-[2-(butoxy)ethoxy]phenyl}-1-propyl-N-(4-{[(1-propyl-1H-imidazol-5-yl)methyl]sulfinyl}phenyl)-1,2,3,4-tetrahydro-1-benzazocine-5-carboxamide] | 0.24 | 1.4
CCCCOCCOc1ccc(-c2ccc3c(c2)C=C(C(=O)Nc2ccc([S+]([O-])Cc4cncn4CCC)cc2)CCCCN3CC(C)C)cc1 [(S)-(-)-9-{4-[2-(butoxy)ethoxy]phenyl}-1-isobutyl-N-(4-{[(1-propyl-1H-imidazol-5-yl)methyl]sulfinyl}phenyl)-2,3,4,5-tetrahydro-1H-1-benzazonine-6-carboxamide] | 0.48 | 2.1
CCCCOCCOc1ccc(-c2ccc3c(c2)C=C(C(=O)Nc2ccc([S+]([O-])Cc4cncn4CCC)cc2)CCCN3Cc2cnn(C)c2)cc1 (stereo not given) | 0.21 | 2.3
CCCCOCCOc1ccc(-c2ccc3c(c2)C=C(C(=O)Nc2ccc([S+]([O-])Cc4cncn4CCC)cc2)CCN3CC(C)C)cc1 (stereo not given) [7-(4-(2-butoxyethoxy)phenyl)-1-isobutyl-N-(4-((1-propyl-1H-imidazol-5-yl)methylsulfinyl)phenyl)-2,3-dihydro-1H-benzo[b]azepine-4-carboxamide] | 1 | 5.3

Reference: BindingDB's records for doi:10.1021/jm0509703 (Takeda Pharmaceutical, 2006)
